Columns and labels:
H460 = test: MTS cytotoxicity, H460; assay type: cell-based; conditions: Homo sapiens, NCI-H460
Description: (§1) Human cancer cell lines were cultured in basic medium (10% fetal bovine serum (FBS)+1% double antibody solution) (Biological Industries) at 37°C in a 5% CO2 incubator. Effects of CTXs on cell proliferation and viability were measured by an MTS (Promega Corporation) assay. Absorbance values at 490 nm were measured using a microplate reader (Thermo Scientific, Varioskan Flash) ([22]).

DU145 cells = test: Cell cycle arrest (PI, flow cytometry); assay type: cell-based, human; conditions: 24 h
Description: Cells were incubated with drugs for 24 h. Fixed cells were incubated with RNase A and stained with propidium iodide (PI). DNA content was determined in a flow cytometer (BD FACS CaliburTM Flow Cytometer, USA) ([23]).

3T3 = test: MTS cytotoxicity, 3T3 (non-tumor); assay type: cell-based; conditions: Mus musculus, NIH3T3, 3T3 non-tumor cell line
SK-OV-3 = test: MTS cytotoxicity, SK-OV-3; assay type: cell-based; conditions: Homo sapiens; SK-OV-3, MTS
Description: as §1

PC-3 = test: MTS cytotoxicity, PC-3; assay type: cell-based; conditions: Homo sapiens; PC-3, MTS
Description: as §1

H358 = test: MTS cytotoxicity, H358; assay type: cell-based; conditions: Homo sapiens, NCI-H358
Description: as §1

Excretion (urine, feces) = assay type: in vivo; conditions: SD rats, 6 μmol/kg iv
Description: Male and female SD rats (200–220 g) received intravenous injections of CTX or CTX-DTPA (6 μmol/kg). […] Blood samples were collected at 5 min to 24 h post-dose. Tissues (heart, liver, spleen, lung, kidney, thymus) and excreta were collected at 15 min, 2 h, 4 h, and 12 h. Plasma and tissue samples were processed by liquid-liquid extraction with n-butanol and analyzed via LC-MS/MS (Agilent Poroshell 120 EC-C18 column; 0.05% formic acid/acetonitrile gradient). Pharmacokinetic parameters were calculated using DAS 2.0 via non-compartmental analysis.

Fadu = test: MTS cytotoxicity, Fadu; assay type: cell-based; conditions: Homo sapiens
Description: as §1

H520 = test: MTS cytotoxicity, H520; assay type: cell-based; conditions: Homo sapiens, NCI-H520
Description: as §1

LN229 = test: MTS cytotoxicity, LN229; assay type: cell-based; conditions: Homo sapiens, LN-229
Description: as §1

MCF-7 xenografts = test: MCF-7 breast cancer xenograft, tumor volume; assay type: in vivo, BALB/c nude mice; conditions: MCF-7 xenograft, 9.6 μmol/kg
Description: All animal experiments were conducted in accordance with protocols approved by the Institutional Animal Care and Use Committee of Peking Union Medical College. Male BALB/c nude mice (6–8 weeks old) and female KM mice (6–8 weeks old) were purchased from Charles River Laboratories (Beijing, China) and maintained under specific pathogen-free conditions.
MCF-7 Breast Cancer Model: Female BALB/c nude mice bearing MCF-7 xenografts (2×10^6 cells/mouse) were randomized into treatment groups as described above, with an adjusted dose of 9.6 μmol/kg for all CTX formulations.

Bel-7402 = test: MTS cytotoxicity, Bel-7402; assay type: cell-based; conditions: Homo sapiens; Bel-7402, MTS
Description: as §1

Hemolysis test = assay type: cell-based, SD rats; conditions: SD, rat, rat red blood cells, 2% (v/v) suspension, 37 °C, 1.5 h
Description: The hemolytic potential of CTX formulations was evaluated using rat red blood cells (RBCs). Briefly, whole blood was collected from the abdominal aorta of anesthetized SD rats into ACD anticoagulant (blood:ACD = 1:4, v/v). The blood was diluted with normal saline (4:5, v/v) and centrifuged at 450 g for 10 min. The RBC pellet was washed three times with normal saline until the supernatant was clear. The washed RBCs were then resuspended in normal saline to prepare a 2% (v/v) suspension.
For the assay, 500 μL of the 2% RBC suspension was mixed with an equal volume of serially diluted drugs or controls in 1.5 mL tubes. The controls included: Negative control (0% hemolysis): normal saline. Positive control (100% hemolysis): distilled water. Solvent control: the vehicle for unmodified CTX (2.5% Tween 80 + 2.5% anhydrous ethanol + 95% normal saline). The mixtures were incubated at 37 °C for 1.5 h and then centrifuged at 450 g for 5 min. Subsequently, 150 μL of the supernatant from each tube was transferred to a 96-well plate, and the absorbance at 545 nm (OD545) was measured using a microplate reader. The percentage of hemolysis was calculated using the following formula: Hemolysis (%) = [(ODsample - ODnegative control)/(ODpositive control - ODnegative control)] × 100.

Tissue distribution = conditions: SD rats 6 μmol/kg iv, dosed compound; for concentration at 15 min: both, SD, rat, in vivo, iv, 6 μmol/kg, tissue concentration
Description: (§2) Male and female SD rats (200–220 g) received intravenous injections of CTX or CTX-DTPA (6 μmol/kg). CTX was dissolved in 2.5% Tween 80/2.5% EtOH/saline, while CTX-DTPA used saline alone. Blood samples were collected at 5 min to 24 h post-dose. Tissues (heart, liver, spleen, lung, kidney, thymus) and excreta were collected at 15 min, 2 h, 4 h, and 12 h. Plasma and tissue samples were processed by liquid-liquid extraction with n-butanol and analyzed via LC-MS/MS (Agilent Poroshell 120 EC-C18 column; 0.05% formic acid/acetonitrile gradient). Pharmacokinetic parameters were calculated using DAS 2.0 via non-compartmental analysis.

MCF-7 = test: MTS cytotoxicity, MCF-7; assay type: cell-based; conditions: Homo sapiens, MCF7; MCF-7, MTS
Description: as §1

HCT 116 = test: MTS cytotoxicity, HCT 116; assay type: cell-based; conditions: Homo sapiens; HCT 116, MTS
Description: as §1

DU145 = test: MTS cytotoxicity, DU145; assay type: cell-based; conditions: Homo sapiens, DU-145
Description: as §1

L-02 = test: MTS cytotoxicity, L-02 (non-tumor); assay type: cell-based; conditions: Homo sapiens, L02, L-02 non-tumor cell line
Description: as §1

[1] = Plasma pharmacokinetics (non-compartmental)
Description: as §2

[2] = both, SD, rat, in vivo, iv, 6 umol/kg

COC1C(=O)C2(C)C(OC)CC3OCC3(OC(C)=O)C2C(OC(=O)c2ccccc2)C2(O)CC(OC(=O)C(OC(=O)CN(CCN(CCN(CC(=O)O)CC(=O)O)CC(=O)O)CC(=O)O)C(NC(=O)OC(C)(C)C)c3ccccc3)C(C)=C1C2(C)C (stereo not shown) [CTX-DTPA]
IC50 (H460): 2.4 ± 1.1 nM | cells arrested in G2/M (DU145 cells; DU145, 1 nM): 16.4 ± 1.0% | cells arrested in G2/M (DU145 cells; DU145, 25 nM): 58.9 ± 16.1% | IC50 (3T3): 8.3 ± 2.7 nM | IC50 (SK-OV-3): 5.4 ± 1.3 nM | IC50 (PC-3): 4.1 ± 0.7 nM | IC50 (H358): 1.6 ± 0.7 nM | urinary excretion of intact CTX-DTPA (Excretion (urine, feces); cumulative): 2191.14 ± 853.66 µg/kg | renal excretion (Excretion (urine, feces); within 24 hours): 39.8 ± 12.7% | IC50 (Fadu): 1.9 ± 0.6 nM | IC50 (H520): 2 ± 1.3 nM | IC50 (LN229): 5.8 ± 2.2 nM | tumor volume at study endpoint (MCF-7 xenografts): 111 ± 18 mm³ | IC50 (Bel-7402): 2.9 ± 0.9 nM | hemolysis at 1.5 h, 300 nmol/mL (Hemolysis test; 300 nmol/mL (maximum tested), read-out: hemolysis rate): 12.1 ± 9.2% | hemolysis at 1.5 h (Hemolysis test; concentrations up to 150 nmol/mL): < 2% | concentration at 15 min (Tissue distribution; spleen, 15 min): 0.39 ± 0.04 ng/g | concentration at 15 min (Tissue distribution; thymus, 15 min): 0.62 ± 0.05 ng/g | tissue concentration (Tissue distribution; heart, 15 min): * 0.27 ± 0.04 μg/kg | tissue concentration (Tissue distribution; heart, 2 h): *** 0.07 ± 0.03 μg/kg | tissue concentration (Tissue distribution; heart, 4 h): *** 0.04 ± 0.00 μg/kg | tissue concentration (Tissue distribution; heart, 12 h): ** 0.06 ± 0.03 μg/kg | tissue concentration (Tissue distribution; kidney, 15 min): **** 41.08 ± 9.73 μg/kg | tissue concentration (Tissue distribution; kidney, 2 h): ** 4.96 ± 1.67 μg/kg | tissue concentration (Tissue distribution; kidney, 4 h): *** 1.55 ± 0.31 μg/kg | tissue concentration (Tissue distribution; kidney, 12 h): **** 1.36 ± 0.84 μg/kg | tissue concentration (Tissue distribution; liver, 15 min): *** 37.74 ± 16.89 μg/kg | tissue concentration (Tissue distribution; liver, 2 h): ** 7.21 ± 1.30 μg/kg | tissue concentration (Tissue distribution; liver, 4 h): * 6.74 ± 5.04 μg/kg | tissue concentration (Tissue distribution; liver, 12 h): * 0.65 ± 0.42 μg/kg | tissue concentration (Tissue distribution; lung, 15 min): *** 2.36 ± 1.29 μg/kg | tissue concentration (Tissue distribution; lung, 2 h): **** 0.48 ± 0.50 μg/kg | tissue concentration (Tissue distribution; lung, 4 h): **** 0.13 ± 0.01 μg/kg | tissue concentration (Tissue distribution; lung, 12 h): * 1.10 ± 0.45 μg/kg | tissue concentration (Tissue distribution; spleen, 15 min): *** 0.39 ± 0.04 μg/kg | tissue concentration (Tissue distribution; spleen, 2 h): **** 0.09 ± 0.03 μg/kg | tissue concentration (Tissue distribution; spleen, 4 h): ** 0.05 ± 0.02 μg/kg | tissue concentration (Tissue distribution; spleen, 12 h): ** 0.05 ± 0.03 μg/kg | tissue concentration (Tissue distribution; thymus, 15 min): ** 0.62 ± 0.05 μg/kg | tissue concentration (Tissue distribution; thymus, 2 h): * 0.10 ± 0.07 μg/kg | tissue concentration (Tissue distribution; thymus, 4 h): * 0.05 ± 0.01 μg/kg | tissue concentration (Tissue distribution; thymus, 12 h): **** 0.06 ± 0.04 μg/kg | IC50 (MCF-7): 6.8 ± 2.4 nM | IC50 (HCT 116): 3.7 ± 1 nM | IC50 (DU145): 5.1 ± 1.4 nM | IC50 (L-02): 8.8 ± 3.6 nM | elimination half-life relative to CTX ([1]; SD rats, 6 μmol/kg iv, longer than CTX): 5.1 fold | MRT0-t ([1]; SD rats, 6 μmol/kg iv, plasma, dosed compound itself): 1.04 ± 0.57 H | AUC(0-t) [1, 2]: 1330 ± 777 ng·h/mL | Cmax [1, 2]: 4360 ± 2880 ng/mL | Vd [1, 2]: 69.9 L/kg | clearance [1, 2]: 126 mL/min/kg
